Several values for one entry are separate records, joined by “and”; a condition that tells them apart may be missing. Equal entries are not always repeated.
Key:
[1] = 298.15 K
[2] = xn = mol fraction of the nth substance listed; conditions: 298.15 K

CCCCOC(C)=O [butyl ethanoate]
Conditions | surface tension liquid-gas [mN/m]
[1] | 24.91

CCCCOC(C)=O [butyl ethanoate] + O
[2]
Conditions | surface tension liquid-gas [mN/m]
x1 = 7.97e-05 | 63.74
x1 = 7.99e-05 | 64.49
x1 = 8.76e-05 | 63.71
x1 = 8.81e-05 | 64.3
x1 = 0.000104 | 62.6
x1 = 0.000124 | 61.81
x1 = 0.000131 | 61.47
x1 = 0.000142 | 61.15
x1 = 0.000173 | 59.3
x1 = 0.000216 | 57.5
x1 = 0.000274 | 55.53
x1 = 0.000343 | 53.31
x1 = 0.000439 | 51.12
x1 = 0.000536 | 49.09
x1 = 0.00067 | 46.9
x1 = 0.000754 | 45.57
x1 = 0.00081 | 44.42
x1 = 0.000933 | 43.1
x1 = 1 | 24.91

CCOC(C)=O [ethyl acetate]
Conditions | surface tension liquid-gas [mN/m]
[1], Drop volume | 23.93

CCOC(C)=O [ethyl acetate] + O
[2], Drop volume
Conditions | surface tension liquid-gas [mN/m]
x1 = 0.0011 | 62.08
x1 = 0.0013 | 60.95
x1 = 0.0014 | 60.43
x1 = 0.0017 | 59.33
x1 = 0.0018 | 58.8
x1 = 0.0025 | 56.64
x1 = 0.0033 | 54.17
x1 = 0.0044 | 51.16
x1 = 0.0054 | 48.98
x1 = 0.0061 | 47.92
x1 = 0.008 | 44.22
x1 = 0.0089 | 43.31
x1 = 0.0118 | 41.37
x1 = 0.0141 | 38.97
x1 = 1 | 23.93

COC(C)=O [methyl ethanoate]
Conditions | surface tension liquid-gas [mN/m]
[1], Drop volume | 24.79

COC(C)=O [methyl ethanoate] + O
[2], Drop volume
Conditions | surface tension liquid-gas [mN/m]
x1 = 0.004 | 61.87
x1 = 0.0047 | 60.57
x1 = 0.0056 | 59.67
x1 = 0.0069 | 57.62
x1 = 0.0093 | 54.72
x1 = 0.0115 | 53.25
x1 = 0.0147 | 49.91
x1 = 0.0183 | 48.18
x1 = 0.0214 | 46.68
x1 = 0.0245 | 44.35
x1 = 0.029 | 42.63
x1 = 0.0341 | 40.26
x1 = 0.0433 | 36.64
x1 = 0.0523 | 33.49
x1 = 0.0586 | 31.61
x1 = 0.0702 | 29.12
x1 = 1 | 24.79

CCCOC(C)=O [propyl ethanoate]
Conditions | surface tension liquid-gas [mN/m]
[1], Drop volume | 24.22

CCCOC(C)=O [propyl ethanoate] + O
[2], Drop volume
Conditions | surface tension liquid-gas
x1 = 0.00017 | 65.86 mN/m
x1 = 0.00023 | 64.54 mN/m
x1 = 0.00031 | 62.64 mN/m and 63.23 mN/m
x1 = 0.00038 | 61.64 mN/m
x1 = 0.00041 | 61.43 mN/m
x1 = 0.00049 | 60.29 mN/m
x1 = 0.00052 | 59.4 mN/m
x1 = 0.00057 | 59.02 mN/m
x1 = 0.00071 | 57.47 mN/m
x1 = 0.00074 | 56.94 mN/m
x1 = 0.00083 | 56.17 mN/m
x1 = 0.00103 | 54.38 mN/m
x1 = 0.00104 | 53.7 mN/m
x1 = 0.00114 | 53.49 mN/m
x1 = 0.00116 | 53.22 mN/m
x1 = 0.00142 | 50.93 mN/m and 51.11 mN/m
x1 = 0.00158 | 49.17 mN/m
x1 = 0.00159 | 49.3 mN/m
x1 = 0.00208 | 46.76 mN/m
x1 = 0.00239 | 45.44 mN/m
x1 = 0.00318 | 42.65 mN/m
x1 = 0.00355 | 41.31 mN/m
x1 = 0.00367 | 40.63 mN/m
x1 = 0.0038 | 40.55 mN/m
x1 = 1 | 24.22 mN/m

O [water]
Conditions | surface tension liquid-gas [mN/m]
[1], Drop volume | 71.57

O [water] + CCCCOC(C)=O
Conditions | surface tension liquid-gas [mN/m]
[2], x2 = 0 | 71.57

O [water] + CCCOC(C)=O
Conditions | surface tension liquid-gas [mN/m]
[2], Drop volume, x2 = 0 | 71.57

O [water] + CCOC(C)=O
Conditions | surface tension liquid-gas [mN/m]
[2], Drop volume, x2 = 0 | 71.57

O [water] + COC(C)=O
Conditions | surface tension liquid-gas [mN/m]
[2], Drop volume, x2 = 0 | 71.57

— the NIST ThermoML archive (doi:10.1021/je900962v)
